Experimental data published in patent US11351173B2, “Substituted pyrrolo[1,2-a]pyrimidines and their use in the treatment of medical disorders” (Bial—R&D Investments, S.A., priority 2014, dated 2022).
Values after ≈ are worked out from the molar mass of the structure shown.

Columns and labels:
[1] = molecular target: T1, glucocerebrosidase (Gcase) (Homo sapiens, UniProt P04062); assay: Glucocerebrosidase (Gcase) activation assay, 4-methylumbelliferyl-beta-D-glucopyranoside substrate, fluorescence readout; assay type: biochemical; details: for activation at 0.1 µM / Percent Gcase Activation, 0.1 μM Test Compound: test compound at 0.1 μM; for activation at 0.1 µM: read-out: Percent Gcase Activation, 0.1 μM Test Compound; for activation at 1 µM / Percent Gcase Activation, 1 μM Test Compound: test compound at 1.0 μM; for activation at 1 µM: read-out: Percent Gcase Activation, 1 μM Test Compound
T1 construct: micellar solution containing 10 nM GCase and 100 nM saposin C
T1 sequence (P04062 40-536): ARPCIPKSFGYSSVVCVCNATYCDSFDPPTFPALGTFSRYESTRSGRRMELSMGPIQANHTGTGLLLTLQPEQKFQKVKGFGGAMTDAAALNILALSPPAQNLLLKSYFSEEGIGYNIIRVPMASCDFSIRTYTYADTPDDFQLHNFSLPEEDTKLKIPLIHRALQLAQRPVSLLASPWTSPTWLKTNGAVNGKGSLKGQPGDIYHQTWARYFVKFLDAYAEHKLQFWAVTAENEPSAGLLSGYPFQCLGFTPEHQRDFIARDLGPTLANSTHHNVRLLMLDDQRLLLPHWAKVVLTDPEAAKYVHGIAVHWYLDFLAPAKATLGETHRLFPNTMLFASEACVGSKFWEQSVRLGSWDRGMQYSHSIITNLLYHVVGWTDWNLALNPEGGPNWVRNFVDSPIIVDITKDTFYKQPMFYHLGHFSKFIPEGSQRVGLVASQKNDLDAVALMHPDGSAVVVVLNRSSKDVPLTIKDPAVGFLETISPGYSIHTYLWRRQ
Protocol: The ability of exemplary compounds to activate glucocerebrosidase (Gcase) was measured.
A 484 μL aliquot of a 1.0 mg/mL solution of phosphatidylserine (PS) (Sigma P7769) in chloroform was evaporated under a stream of nitrogen for 1 hour. The lipid film was dissolved over 4 minutes of vigorous vortexing in 40 mL of 176 mM K2HPO4/50 mM citric acid (pH 4.7) containing 7.5 μL of triton X-100, resulting in a mixed micellar preparation with a composition of 0.32 mM triton and 0.37 mol % PS. 4-Methylumbelliferyl-beta-D-glucopyranoside (ACROS-337025000) was dissolved in the micellar solution to a final concentration of 2 mM for use as the reaction substrate.
Test compounds were diluted to the desired concentrations with dimethylsulfoxide (DMSO) from 10 mM stocks, and 0.41 μL of the DMSO compound mixture was added to 100 μL of micellar solution containing 10 nM GCase and 100 nM saposin C (Enzo ALX-201-262-C050). Pre-incubation was allowed to occur for 30 minutes at room temperature, after which the reaction was initiated by combining 25 μL of substrate solution with 25 μL of compound/GCase/saposin mixture. The reaction proceeded for 15 minutes at room temperature and was stopped by adding 150 μL of 1M glycine, pH 12.5. The endpoint of the reaction was monitored by measuring fluorescence intensity (excitation: 365 nm; emission: 440 nm) on a SpectraMax i3 instrument (Molecular Devices). Test compounds were screened at 1.0 and 0.1 μM final concentration, and subsequent 8-point dose response curves were obtained using 3-fold dilutions from a maximum final concentration of 5 μM.

[2] = Compound solubility in water; details: water; for solubility: Compound Solubility in Water

| Structure (SMILES) | activation at 0.1 µM [1] | activation at 1 µM [1] | solubility [2] | Percent Gcase Activation, 0.1 μM Test Compound [1] | Percent Gcase Activation, 1 μM Test Compound [1] | Compound Solubility in Water [2] | solubility ([2]; in water) |
| --- | --- | --- | --- | --- | --- | --- | --- |
| Cc1cc(C(F)F)nc2c(C(=O)NC3CCCc4ccccc43)ccn12 (stereo not drawn) [III-29] | > 20% | > 60% | 0.9 µg/mL (≈ 2.53 µM) | – | – | – | – |
| Cc1cc(C)n2ccc(C(=O)NC(C)(C)c3ccccc3)c2n1 [III-91] | > 20% | > 60% | 3 µg/mL (≈ 9.76 µM) | – | – | – | – |
| Cc1cc(C)n2ccc(C(=O)Nc3ccc(-c4cnn(C)c4)cc3)c2n1 [III-12] | > 20% | 30 to 60% | 0.06 µg/mL (≈ 0.174 µM) | – | – | – | – |
| [2H]C1(NC(=O)c2ccn3c(C(C)C)cc(COC)nc23)CCOc2cc(F)c(F)cc21 (stereo not drawn) [III-60] | < 10% | 30 to 60% | 2.4 µg/mL (≈ 5.76 µM) | – | – | – | – |
| CCCCO[C@H]1CC[C@H](NC(=O)c2ccn3c(C)cc(F)nc23)CC1 [III-72] | < 10% | 30 to 60% | 14.3 µg/mL (≈ 41.2 µM) | – | – | – | – |
| Cc1cc(C)n2ccc(C(=O)NC3CCC4(CCCO4)CC3)c2n1 (stereo not drawn) [III-142] | – | – | – | * (less than 10% Gcase activation) | + (less than 30% Gcase activation) | 17.4 µg/mL | – |
| Cc1ccnc2c(C(=O)NC(C)(C)c3ccccc3)ccn12 [III-259] | < 10% | 30 to 60% | – | – | – | – | 16.7 µg/mL (≈ 56.9 µM) |
| Cc1cc(C)n2ccc(C(=O)N[C@@H](C)c3ccccc3)c2n1 [III-166] | 10 to 20% | > 60% | 2 µg/mL (≈ 6.82 µM) | – | – | – | – |
| Cc1cc(C)n2ccc(C(=O)Nc3ccc(-c4ccco4)cc3)c2n1 [III-276] | – | – | – | *** (greater than 20% Gcase activation) | +++ (Gcase activation greater than 60%) | – | < 0.1 µg/mL |
| CCCCOC(=O)N1CC(NC(=O)c2ccn3c(C)cc(C)nc23)C1 [III-137] | < 10% | < 30% | 15.5 µg/mL (≈ 45 µM) | – | – | – | – |
| Cc1cc(C)n2ccc(C(=O)NC3CCCc4ccc(S(C)(=O)=O)cc43)c2n1 (stereo not drawn) [III-230] | < 10% | < 30% | – | – | – | – | 13.8 µg/mL (≈ 34.7 µM) |
| Cc1ccnc2c(C(=O)NC3(C)CCCc4ccccc43)ccn12 (stereo not drawn) [III-262] | > 20% | > 60% | – | – | – | – | 0.9 µg/mL (≈ 2.82 µM) |
| Cc1cc(C)n2ccc(C(=O)NC3CCC(F)(F)CC3)c2n1 [III-92] | < 10% | 30 to 60% | 1.6 µg/mL (≈ 5.21 µM) | – | – | – | – |
| CO[C@H]1CC[C@@H](C(C)(C)NC(=O)c2ccn3c(C)cc(Cl)nc23)CC1 [III-76] | > 20% | > 60% | 0.04 µg/mL (≈ 0.11 µM) | – | – | – | – |
| Cc1cc(C)n2ccc(C(=O)N[C@H]3CCCc4ccccc43)c2n1 [III-100] | > 20% | > 60% | 0.7 µg/mL (≈ 2.19 µM) | – | – | – | – |
| Cc1cc(C)n2ccc(C(=O)NC3CCOc4ccccc43)c2n1 (stereo not drawn) [III-211] | 10 to 20% | > 60% | – | – | – | – | 3.8 µg/mL (≈ 11.8 µM) |
| [2H]C1(NC(=O)c2ccn3c(C)cc(NC(C)=O)nc23)CCOc2ccccc21 (stereo not drawn) [III-163] | < 10% | < 30% | 2.5 µg/mL (≈ 6.84 µM) | – | – | – | – |
| CCCCO[C@H]1CC[C@H](NC(=O)c2ccn3c(C)cc(C(F)F)nc23)CC1 [III-67] | > 20% | > 60% | 4.7 µg/mL (≈ 12.4 µM) | – | – | – | – |
| Cc1cc(C)n2ccc(C(=O)N[C@H](C)c3ccccc3)c2n1 [III-165] | > 20% | > 60% | 1.1 µg/mL (≈ 3.75 µM) | – | – | – | – |
| C#Cc1cccc(C(C)(C)NC(=O)c2ccn3c(COC)cc(C)nc23)c1 [III-63] | 10 to 20% | > 60% | 0.8 µg/mL (≈ 2.21 µM) | – | – | – | – |
| COCc1cc(C)n2ccc(C(=O)NC(C)(C)c3ccc(-c4cocn4)cc3)c2n1 [III-48] | 10 to 20% | > 60% | 3.5 µg/mL (≈ 8.65 µM) | – | – | – | – |
| Cc1cc(C(F)F)n2ccc(C(=O)Nc3ccc(-c4cocn4)cc3)c2n1 [III-27] | > 20% | 30 to 60% | 0.3 µg/mL (≈ 0.814 µM) | – | – | – | – |
| Cc1cc(C)n2ccc(C(=O)NC3(C)CCOc4cccc(F)c43)c2n1 (stereo not drawn) [III-118] | > 20% | > 60% | 1.4 µg/mL (≈ 3.96 µM) | – | – | – | – |
